# Counter-ions that a name gives are not always drawn. Active and inactive are the calls of the source.
# Key:
# [1] = target: T1, RNA-binding protein pos-1 (Caenorhabditis elegans, UniProt G5EF15); assay: disruptors of C. elegans POS-1 RNA interaction – biochemical, fluorescence polarization, dose response (AID 1964);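 also: purified POS-1 fused to maltose binding protein made in E. coli; potency of compounds blocking POS-1 binding to fluorescent RNA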
# T1 sequence (G5EF15 whole entry): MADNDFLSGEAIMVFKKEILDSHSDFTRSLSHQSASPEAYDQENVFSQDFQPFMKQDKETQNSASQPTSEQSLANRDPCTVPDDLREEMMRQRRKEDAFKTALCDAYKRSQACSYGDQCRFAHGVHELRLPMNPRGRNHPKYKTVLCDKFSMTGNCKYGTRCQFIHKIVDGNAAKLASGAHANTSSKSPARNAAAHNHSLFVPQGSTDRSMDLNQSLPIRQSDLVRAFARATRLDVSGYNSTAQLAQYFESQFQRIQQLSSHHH
# [2] = target: T2, Zinc finger protein mex-5 (Caenorhabditis elegans, UniProt Q9XUB2); assay: potency of MEX-5 RNA-binding blockers – biochemical, C. elegans, fluorescence polarization, dose response (AID 1960)
# T2 sequence (Q9XUB2 whole entry): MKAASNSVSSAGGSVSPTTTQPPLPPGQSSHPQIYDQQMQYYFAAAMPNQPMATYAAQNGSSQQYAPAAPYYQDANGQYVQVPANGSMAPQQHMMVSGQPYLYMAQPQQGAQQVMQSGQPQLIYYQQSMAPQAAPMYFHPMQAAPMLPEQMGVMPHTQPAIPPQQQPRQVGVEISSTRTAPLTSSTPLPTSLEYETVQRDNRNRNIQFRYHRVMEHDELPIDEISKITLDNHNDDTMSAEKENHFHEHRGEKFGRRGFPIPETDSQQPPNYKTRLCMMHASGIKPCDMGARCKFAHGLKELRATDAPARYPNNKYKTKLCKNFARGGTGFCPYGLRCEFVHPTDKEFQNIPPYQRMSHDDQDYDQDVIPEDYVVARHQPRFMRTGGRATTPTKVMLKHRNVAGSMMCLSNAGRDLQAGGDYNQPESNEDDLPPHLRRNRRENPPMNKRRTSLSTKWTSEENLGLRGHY
# [3] = target: T3, Endoribonuclease toxin MazF (Escherichia coli K-12, UniProt P0AE70); assay: activation of MazEF endoribonuclease cleavage – biochemical, fluorescence, single-stranded RNA substrate, uHTS hits, dose response (AID 588481); assay type: functional
# T3 sequence (P0AE70 whole entry): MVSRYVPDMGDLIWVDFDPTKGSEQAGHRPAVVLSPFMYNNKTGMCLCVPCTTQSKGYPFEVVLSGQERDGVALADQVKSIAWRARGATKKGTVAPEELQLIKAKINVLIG
# [4] = target: T3, Endoribonuclease toxin MazF; assay: substrate-only fluorescence increase artefacts – biochemical, single-stranded RNase substrate, counter-screen for MazEF activator project, dose response (AID 588502); assay type: functional
# HEK293 = assay: EBV LMP1 TES2 canonical NF-kB signalling blockers – cell-based, HEK293, luciferase, cherry-pick, dose response (AID 588343); assay type: functional; details: Homo sapiens
# [5] = target: 26S proteasome non-ATPase regulatory subunit 14 (Homo sapiens, UniProt O00487); assay: inhibition of proteasome subunit RPN11 – biochemical, fluorescence polarization, uHTS hits, confirmation (AID 602368); assay type: functional
# 26S proteasome non-ATPase regulatory subunit 14, sequence (O00487 whole entry): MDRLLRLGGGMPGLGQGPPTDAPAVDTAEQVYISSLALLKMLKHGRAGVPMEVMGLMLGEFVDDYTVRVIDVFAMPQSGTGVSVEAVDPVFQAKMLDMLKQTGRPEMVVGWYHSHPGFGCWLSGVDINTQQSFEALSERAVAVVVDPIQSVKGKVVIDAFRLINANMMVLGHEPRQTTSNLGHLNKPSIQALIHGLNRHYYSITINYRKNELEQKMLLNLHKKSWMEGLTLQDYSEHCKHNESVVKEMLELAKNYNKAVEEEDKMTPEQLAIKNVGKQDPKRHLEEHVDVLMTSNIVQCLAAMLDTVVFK
# [6] = target: 72 kDa type IV collagenase (Homo sapiens, UniProt P08253); assay: Dose Response validation of uHTS RPN11 inhibitor hits using a MMP-2 Fluorescence assay.; assay type: functional
# 72 kDa type IV collagenase, sequence (P08253 whole entry): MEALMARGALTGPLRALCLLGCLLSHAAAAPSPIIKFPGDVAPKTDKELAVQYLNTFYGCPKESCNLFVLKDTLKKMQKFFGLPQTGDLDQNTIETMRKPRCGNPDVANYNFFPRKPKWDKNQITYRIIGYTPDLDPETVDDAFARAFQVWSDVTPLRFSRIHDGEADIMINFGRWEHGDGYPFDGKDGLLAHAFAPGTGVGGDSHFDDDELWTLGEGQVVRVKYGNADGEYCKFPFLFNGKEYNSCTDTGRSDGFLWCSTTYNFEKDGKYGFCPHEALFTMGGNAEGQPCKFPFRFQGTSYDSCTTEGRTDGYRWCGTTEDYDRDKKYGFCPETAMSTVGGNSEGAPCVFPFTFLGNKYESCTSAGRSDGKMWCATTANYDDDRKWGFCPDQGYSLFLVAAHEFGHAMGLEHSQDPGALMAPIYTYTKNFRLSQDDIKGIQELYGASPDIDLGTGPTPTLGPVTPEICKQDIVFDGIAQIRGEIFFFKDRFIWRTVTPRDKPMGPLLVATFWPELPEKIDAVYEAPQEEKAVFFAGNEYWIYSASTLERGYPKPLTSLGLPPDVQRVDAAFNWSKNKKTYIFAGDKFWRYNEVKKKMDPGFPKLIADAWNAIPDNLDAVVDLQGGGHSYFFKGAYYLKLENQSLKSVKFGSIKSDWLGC
# Prothrombin = Prothrombin (Bos taurus, UniProt P00735); assay: thrombin protease inhibitors – biochemical, fluorescence polarization, uHTS hits, dose response (AID 602369); assay type: functional
# cells = assay type: functional, cell-based
# [7] = target: T4, Nuclear receptor subfamily 0 group B member 1 (Homo sapiens, UniProt P51843); assay type: functional, cell-based;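 also: HEK293T cells transfected with SF-1 and DAX-1 plus StAR promoter luciferase reporter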
# T4 sequence (P51843 whole entry): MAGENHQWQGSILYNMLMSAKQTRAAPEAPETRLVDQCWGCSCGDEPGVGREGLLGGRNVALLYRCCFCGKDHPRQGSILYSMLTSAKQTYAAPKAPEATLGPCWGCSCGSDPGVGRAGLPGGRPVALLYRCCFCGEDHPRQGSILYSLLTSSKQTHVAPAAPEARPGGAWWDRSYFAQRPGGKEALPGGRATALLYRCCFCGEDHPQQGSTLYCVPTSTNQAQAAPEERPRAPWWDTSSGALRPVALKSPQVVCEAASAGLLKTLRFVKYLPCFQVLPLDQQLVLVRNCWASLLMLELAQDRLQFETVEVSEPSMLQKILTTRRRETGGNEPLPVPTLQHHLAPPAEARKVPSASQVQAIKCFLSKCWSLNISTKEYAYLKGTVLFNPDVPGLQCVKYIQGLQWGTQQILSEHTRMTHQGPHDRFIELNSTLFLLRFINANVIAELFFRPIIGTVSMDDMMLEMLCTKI
# [8] = target: Luciferin 4-monooxygenase (Photinus pyralis, UniProt P08659); assay: inhibition of purified Photinus pyralis luciferase – biochemical, luminescence, dose response (AID 1891)
# Luciferin 4-monooxygenase, sequence (P08659 whole entry): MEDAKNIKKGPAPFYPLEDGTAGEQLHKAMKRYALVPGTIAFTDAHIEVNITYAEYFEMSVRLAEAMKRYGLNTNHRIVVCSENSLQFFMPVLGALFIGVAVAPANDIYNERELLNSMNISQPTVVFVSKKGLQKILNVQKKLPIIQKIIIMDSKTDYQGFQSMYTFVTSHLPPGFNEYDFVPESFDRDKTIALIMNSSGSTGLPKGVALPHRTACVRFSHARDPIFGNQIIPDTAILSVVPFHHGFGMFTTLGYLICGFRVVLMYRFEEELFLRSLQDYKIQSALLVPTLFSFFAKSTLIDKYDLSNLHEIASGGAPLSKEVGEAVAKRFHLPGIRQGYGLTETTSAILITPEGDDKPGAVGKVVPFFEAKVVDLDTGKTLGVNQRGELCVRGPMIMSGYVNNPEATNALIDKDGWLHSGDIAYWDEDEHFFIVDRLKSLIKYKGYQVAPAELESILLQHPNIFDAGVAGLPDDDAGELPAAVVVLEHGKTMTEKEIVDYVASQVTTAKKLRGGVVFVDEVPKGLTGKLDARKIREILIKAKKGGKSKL
# [9] = Luminescence Cell-Based Dose Confirmation HTS to Identify Inhibitors of Platelet Dense Granule Release. [Related pubchem assays: 1663 (Primary HTS), 1678 (Summary of Project)]; assay type: functional
# [10] = viability of PTEN-deleted HCT116 cells – cell-based, HCT116 PTEN knockout, dose response (AID 1047); assay type: functional;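 also: HCT116 colon tumor cells with PTEN knocked out; cells exposed to compound for 60 hours before readout; potency for loss of cell viability measured by luminescence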
# [11] = viability of HCT116 lacking mutant beta-catenin – cell-based, human colon tumor, dose response (AID 1045); assay type: functional;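 also: HCT116 colon tumor cells with beta catenin knocked out; cells exposed to compound for 60 hours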
# INS1 = assay: INS-1E survival protection against cytokine death – cell-based, luminescence, retest, dose response (AID 449756); assay type: functional; details: Rattus norvegicus;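 also: cell death triggered by IL-1 beta plus TNF-alpha plus IFN-gamma mixture; protective hits raise ATP signal compared with cytokine alone wells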
# Melanocortin receptor 4 = Melanocortin receptor 4 (Homo sapiens, UniProt P32245); assay type: functional, cell-based;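 also: Cell-based assay with luminescence read-out, confirmatory dose-response testing for agonist activity of biased ligands at MC4R; human U2OS cells with tagged receptor and beta-arrestin; potency of agonists that increase receptor coupling to beta-arrestin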
# Melanocortin receptor 4, sequence (P32245 whole entry): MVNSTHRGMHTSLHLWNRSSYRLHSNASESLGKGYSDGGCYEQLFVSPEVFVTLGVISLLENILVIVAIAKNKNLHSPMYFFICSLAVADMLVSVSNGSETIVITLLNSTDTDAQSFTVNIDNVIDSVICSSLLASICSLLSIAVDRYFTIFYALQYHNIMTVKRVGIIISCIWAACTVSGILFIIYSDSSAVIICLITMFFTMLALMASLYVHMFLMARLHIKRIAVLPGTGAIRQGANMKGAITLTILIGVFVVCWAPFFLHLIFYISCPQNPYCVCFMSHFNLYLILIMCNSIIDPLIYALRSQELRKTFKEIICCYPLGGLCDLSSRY
# [12] = target: T5, Sentrin-specific protease 8 (Homo sapiens, UniProt Q96LD8); assay: inhibition of human SENP8 cleavage activity – biochemical, luminescence, SAR follow-up (AID 504501); assay type: functional
# T5 sequence (Q96LD8 whole entry): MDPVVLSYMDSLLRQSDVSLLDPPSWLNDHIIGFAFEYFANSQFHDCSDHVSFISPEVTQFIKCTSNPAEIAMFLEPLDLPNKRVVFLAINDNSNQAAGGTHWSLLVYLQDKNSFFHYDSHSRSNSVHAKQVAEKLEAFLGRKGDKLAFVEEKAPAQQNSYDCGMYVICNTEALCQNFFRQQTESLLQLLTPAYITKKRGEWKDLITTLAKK
# Caspase-3 = target: T6, Caspase-3 (Homo sapiens, UniProt P42574); assay: SAR Analysis of small molecule inhibitors of Sentrin-specific proteases (SENPs) using a Caspase-3 Selectivity assay. [Related pubchem assays (depositor defined):AID2540, AID2599, AID434973, AID489001]; assay type: functional
# T6 sequence (P42574 whole entry): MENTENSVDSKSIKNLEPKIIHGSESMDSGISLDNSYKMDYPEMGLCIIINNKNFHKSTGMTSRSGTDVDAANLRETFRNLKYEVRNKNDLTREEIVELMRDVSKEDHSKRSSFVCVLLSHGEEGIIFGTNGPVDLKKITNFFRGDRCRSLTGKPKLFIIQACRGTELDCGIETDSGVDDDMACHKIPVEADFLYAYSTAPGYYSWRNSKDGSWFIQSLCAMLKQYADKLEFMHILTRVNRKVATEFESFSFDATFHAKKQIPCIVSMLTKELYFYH
# [13] = target: T7, Sentrin-specific protease 6 (Homo sapiens, UniProt Q9GZR1); assay: SAR Analysis of small molecule inhibitors of Sentrin-specific protease 6 (SENP6) using a Luminescent assay. [Related pubchem assays (depositor defined):AID2582, AID2599]; assay type: functional
# T7 sequence (Q9GZR1 whole entry): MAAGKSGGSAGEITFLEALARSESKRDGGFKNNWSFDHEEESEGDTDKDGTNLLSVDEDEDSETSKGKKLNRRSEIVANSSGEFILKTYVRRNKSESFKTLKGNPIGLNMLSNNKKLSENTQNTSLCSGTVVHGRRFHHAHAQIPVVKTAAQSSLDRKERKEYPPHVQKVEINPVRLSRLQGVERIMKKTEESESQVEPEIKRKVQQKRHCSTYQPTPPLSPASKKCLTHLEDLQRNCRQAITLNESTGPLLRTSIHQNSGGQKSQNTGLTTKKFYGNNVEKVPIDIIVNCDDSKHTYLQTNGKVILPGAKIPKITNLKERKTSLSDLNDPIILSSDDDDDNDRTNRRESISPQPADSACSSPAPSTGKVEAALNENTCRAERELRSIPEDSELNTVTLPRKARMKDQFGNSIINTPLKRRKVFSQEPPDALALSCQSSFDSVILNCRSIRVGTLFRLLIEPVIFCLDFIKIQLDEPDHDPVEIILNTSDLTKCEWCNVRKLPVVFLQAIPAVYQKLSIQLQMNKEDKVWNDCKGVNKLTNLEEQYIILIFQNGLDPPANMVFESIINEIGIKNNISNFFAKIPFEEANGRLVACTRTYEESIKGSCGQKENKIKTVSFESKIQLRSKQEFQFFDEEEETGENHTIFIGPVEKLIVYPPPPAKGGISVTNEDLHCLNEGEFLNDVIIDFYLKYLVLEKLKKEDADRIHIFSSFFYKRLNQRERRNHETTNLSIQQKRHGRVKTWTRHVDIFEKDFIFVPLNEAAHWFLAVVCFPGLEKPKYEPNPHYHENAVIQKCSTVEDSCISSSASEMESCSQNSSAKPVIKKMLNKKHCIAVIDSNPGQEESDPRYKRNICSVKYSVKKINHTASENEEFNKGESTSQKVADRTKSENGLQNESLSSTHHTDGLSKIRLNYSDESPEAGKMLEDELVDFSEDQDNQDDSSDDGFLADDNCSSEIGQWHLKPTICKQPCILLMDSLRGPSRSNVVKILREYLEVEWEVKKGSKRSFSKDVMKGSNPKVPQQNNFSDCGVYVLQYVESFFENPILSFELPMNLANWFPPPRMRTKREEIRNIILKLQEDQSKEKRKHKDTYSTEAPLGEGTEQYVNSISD
# [14] = target: T8, Sentrin-specific protease 7 (Homo sapiens, UniProt Q9BQF6); assay: inhibition of human SENP7 cleavage activity – biochemical, luminescence, SAR follow-up (AID 504497); assay type: functional
# T8 sequence (Q9BQF6 whole entry): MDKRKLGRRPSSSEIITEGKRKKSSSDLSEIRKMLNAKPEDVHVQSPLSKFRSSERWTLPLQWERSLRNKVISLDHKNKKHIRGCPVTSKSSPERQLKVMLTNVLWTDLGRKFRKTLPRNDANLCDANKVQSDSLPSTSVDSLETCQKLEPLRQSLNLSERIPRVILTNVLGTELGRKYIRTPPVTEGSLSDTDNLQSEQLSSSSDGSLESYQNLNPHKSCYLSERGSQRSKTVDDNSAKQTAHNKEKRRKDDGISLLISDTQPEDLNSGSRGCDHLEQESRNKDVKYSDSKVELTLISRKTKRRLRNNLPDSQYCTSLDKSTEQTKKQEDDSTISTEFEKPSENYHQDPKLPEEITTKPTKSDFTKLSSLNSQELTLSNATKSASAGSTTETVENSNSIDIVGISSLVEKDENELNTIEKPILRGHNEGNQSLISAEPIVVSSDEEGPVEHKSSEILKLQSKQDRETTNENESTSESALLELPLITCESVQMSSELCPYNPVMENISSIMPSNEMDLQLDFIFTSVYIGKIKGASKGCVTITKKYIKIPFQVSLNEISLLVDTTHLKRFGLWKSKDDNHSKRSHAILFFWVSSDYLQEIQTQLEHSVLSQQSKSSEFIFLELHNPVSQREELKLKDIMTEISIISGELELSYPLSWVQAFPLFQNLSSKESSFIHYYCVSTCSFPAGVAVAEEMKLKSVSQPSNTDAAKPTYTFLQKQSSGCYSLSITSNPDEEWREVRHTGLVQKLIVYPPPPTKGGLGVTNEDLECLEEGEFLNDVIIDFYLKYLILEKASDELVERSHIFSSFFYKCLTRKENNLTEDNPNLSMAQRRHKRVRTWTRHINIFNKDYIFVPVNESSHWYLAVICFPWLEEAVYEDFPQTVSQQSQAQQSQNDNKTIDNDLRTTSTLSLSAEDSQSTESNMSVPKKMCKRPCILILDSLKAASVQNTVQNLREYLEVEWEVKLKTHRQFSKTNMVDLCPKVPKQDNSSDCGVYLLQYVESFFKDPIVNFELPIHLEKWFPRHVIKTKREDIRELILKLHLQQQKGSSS
# Vero = assay: viability of Vero cells under compound – cytotoxicity control for flavivirus capping enzyme inhibitors (AID 588742); assay type: functional; details: Chlorocebus sabaeus
smiles,measurement,setting,value
COc1ccc2c(c1)c1nc3ccccc3nc1n2CCCN1C(=O)c2ccccc2C1=O,EC50,[1],32.7 µM (active)
same,EC50,[2],73.9 µM (inconclusive)
same,EC50,[3],> 99 µM (inactive)
same,EC50,[4],> 99 µM (inactive)
Cc1ccsc1/C=C/c1ccc2ccccc2n1,AC50,HEK293,15.8 µM (active)
same,IC50,[5],23.4 µM (active)
same,IC50,[6],> 100 µM (inactive)
same,IC50,Prothrombin,29.3 µM (active)
same,IC50,cells,> 67.5 µM (inactive)
same,IC50,[7],> 0.278 µM (active)
CCC(C)c1ccc(NC(S)=NC2CCN(Cc3ccccc3)CC2)cc1 (stereo not given),EC50,[8],> 112 µM (not active)
same,EC50,[9],> 112 µM (not active)
same,EC50,[10],13.5 µM (active)
same,EC50,[11],14.2 µM (active)
same,AC50,INS1,6.84 µM (active)
same,EC50,Melanocortin receptor 4,> 9.91 µM (active)
O=[N+]([O-])c1ccc(-c2nc(/C=C/c3ccc(F)cc3)no2)cc1,IC50,[12],> 99 µM (inactive)
same,IC50,Caspase-3,> 99 µM (inactive)
same,IC50,[13],> 99 µM (inactive)
same,IC50,[14],> 99 µM (inactive)
CN1CCN(C(c2ccccc2)c2ccc(Cl)cc2)CC1 (stereo not given) [CHLORCYCLIZINE HYDROCHLORIDE],CC50,Vero,> 40 µM (active)
CCc1cccc2c(C(=O)CN3C(=O)c4ccccc4C3=O)c[nH]c12,IC50,[12],> 99 µM (inactive)
same,IC50,Caspase-3,> 99 µM (inactive)
same,IC50,[13],> 99 µM (inactive)
same,IC50,[14],> 99 µM (inactive)
